Assay results as given in patent publication US20210137118A1, “NEW USES OF 9-(3-DEOXY-BETA-D-RIBOFURANOSYL)ADENINE” (Agroquimicos De Levante, S.A., priority 2018, published 2021).

Columns and labels:
Halyomorpha halys = assay: Laboratory tests on heteroptera; format: in vivo
Meloidogyne incognita = assay: In vitro test on M. incognita eggs (egg hatching, petri dishes); details: tested concentration 5%
Anacridium aegyptium = assay: Laboratory tests on orthoptera; format: in vivo

SMILES: Nc1ncnc2c1ncn2[C@@H]1O[C@H](CO)C[C@H]1O [9-(3-Deoxy-β-D-ribofuranosyl)adenine]
- effect on adult forms of heteroptera (Halyomorpha halys) (Halyomorpha halys): no significant effect
- action on free larvae included in the ovisacs (Meloidogyne incognita): good action
- effect on egg embryogenesis (Meloidogyne incognita): inhibition of egg embryogenesis
- effect on adult forms of orthoptera (Anacridium aegyptium) (Anacridium aegyptium): no significant effect
